The values below come from patent US12404285B2, “KRAS G12D proteolysis targeting chimeras” (PAQ Therapeutics Inc., priority 2022, dated 2025).

Test [1] concerns the target T1, KRAS in AGS cells (KRAS G12D mutant cell line) or LS180 cells (KRAS G12D mutant cell line) (Homo sapiens, UniProt P01116, G12D).
T1 construct: CRL-187 (LS180) (so in the source); host or cells: AGS or LS180 cells
Briefly: KRAS Western Blot (WB) assay. It counts as cell-based. The note with it: KRAS degradation, 24 hours incubation, normalized to β-actin. The procedure, abridged:
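AGS or LS180 (KRAS G12D) cells treated 24 h with compound; lysates run on SDS-PAGE and immunoblotted for KRAS with β-actin loading control. Fluorescent secondary detection; KRAS bands quantified, normalized to β-actin, giving DC50.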
A general note: In western blotting, separated proteins are transferred to a membrane and probed.

Test [2] deals with T2, KRAS (G12D)-HiBit in AsPc-1-KRAS (G12D)-HiBit-KI cell (Homo sapiens, UniProt P01116, G12D).
T2 construct: host or cells: AsPc-1-KRAS (G12D)-HiBit-KI cells (knock-in line)
Kind of test: G12D HiBit assay. The class given is cell-based. The following applies: 24 hours compound treatment, absolute DC50, read-out: Average PHA DC50. The procedure, abridged:
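Degradation of endogenous HiBiT-tagged KRAS G12D in AsPc-1 knock-in cells read after 24 h compound exposure (0.015-300 nM, 3-fold steps) by Nano-Glo HiBiT lytic luminescence. Signal normalised to DMSO-only cells; absolute DC50 derived by curve fitting.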
Background: The HiBiT peptide binds its large partner to form an active luciferase.

The target in another test is KRAS G12C (Homo sapiens, UniProt P01116, G12C). The note with it: homozygous and heterozygous tumor cells; cited from earlier work.
In test [3] the target is T3, KRAS G12D (Homo sapiens, UniProt P01116, G12D). The note with it: switch II pocket of KRAS G12D; noncovalent; cited from earlier work.
The target in test [4] is T3, KRAS G12D. The note with it: cited from earlier work.
Test [5] has as its system tumor models harboring KRAS G12D mutations. The note with it: cited from earlier work.

For `C#Cc1c(F)ccc2cccc(-c3ncc4c(N5CC6CCC(C5)N6)nc(OC[C@@]56CCCN5[C@H](COC(=O)N5CCC(OCCCc7cccc8c7n(C)c(=O)n8C7CCC(=O)NC7=O)CC5)CC6)nc4c3F)c12` (stereo partly drawn) [Compound 031, [(3S,8S)-8-[[4-(3,8-diazabicyclo[3.2.1]octan-3-yl)-7-(8-ethynyl-7-fluoro-1-naphthyl)-8-fluoro-pyrido[4,3-d]pyrimidin-2-yl]oxymethyl]-1,2,3,5,6,7-hexahydropyrrolizin-3-yl]methyl 4-[3-[1-(2,6-dioxo-3-piperidyl)-3-methyl-2-oxo-benzimidazol-4-yl]propoxy]piperidine-1-carboxylate], the DC50 result in test [1] is “A (DC50 less than 1 μM)”; in test [2], less than 100 nM.
As to `C#Cc1c(F)ccc2cc(O)cc(-c3ncc4c(N5CC6CCC(C5)N6)nc(OC[C@@]56CCCN5[C@H](COC(=O)N5CCC(OCCCc7cccc8c7n(C)c(=O)n8C7CCC(=O)NC7=O)CC5)CC6)nc4c3F)c12` (stereo partly drawn) [Compound 032, [(3S,8S)-8-[[4-(3,8-diazabicyclo[3.2.1]octan-3-yl)-7-(8-ethynyl-7-fluoro-3-hydroxy-1-naphthyl)-8-fluoro-pyrido[4,3-d]pyrimidin-2-yl]oxymethyl]-1,2,3,5,6,7-hexahydropyrrolizin-3-yl]methyl4-[3-[1-(2,6-dioxo-3-piperidyl)-3-methyl-2-oxo-benzimidazol-4-yl]propoxy]piperidine-1-carboxylate], the results for the DC50 result in test [1] and in test [2] were “A (DC50 less than 1 μM)” and less than 100 nM, respectively.
With `C#Cc1c(F)ccc2cc(O)cc(-c3ncc4c(N5CC6CCC(C5)N6)nc(OC[C@@]56CCCN5[C@H](COC(=O)N5CCC(OCC#Cc7cccc8c7n(C)c(=O)n8C7CCC(=O)NC7=O)CC5)CC6)nc4c3F)c12` (stereo partly drawn) [Compound 033, [(3S,8S)-8-[[4-(3,8-diazabicyclo[3.2.1]octan-3-yl)-7-(8-ethynyl-7-fluoro-3-hydroxy-1-naphthyl)-8-fluoro-pyrido[4,3-d]pyrimidin-2-yl]oxymethyl]-1,2,3,5,6,7-hexahydropyrrolizin-3-yl]methyl 4-[3-[1-(2,6-dioxo-3-piperidyl)-3-methyl-2-oxo-benzimidazol-4-yl]prop-2-ynoxy]piperidine-1-carboxylate], the DC50 result in test [1] is “A (DC50 less than 1 μM)”; in test [2] it was less than 100 nM.
Take `C=C(F)C(=O)N1CCN(c2nc(OC[C@@H]3CCCN3CCCOCCC(=O)N[C@H](C(=O)N3C[C@H](O)C[C@H]3C(=O)NCc3ccc(-c4scnc4C)cc3)C(C)(C)C)nc3c2CCN(c2cccc4cccc(Cl)c24)C3)C[C@@H]1CC#N` [LC-2]: the “degradation of KRAS G12C” value on KRAS G12C is given as “can rapidly degrade KRAS G12C”.
Regarding `C#Cc1c(F)ccc2cc(O)cc(-c3ncc4c(N5CC6CCC(C5)N6)nc(OC[C@@]56CCCN5C[C@H](F)C6)nc4c3F)c12` [MRTX1133], the binding affinity entry at KRAS G12D [3] is on record as “picomolar”. Moreover, the “activity in cellular assays” value on KRAS G12D [4] is listed as “low nanomolar”. Further, the in vivo efficacy result in test [5] is recorded as “in vivo efficacy”.
